US10294202B2, “Pyrrolidinones as herbicides” (FMC Corporation, priority 2013, dated 2019)

Legend:
barnyardgrass [1] = assay: Test A pre-/postemergence herbicide test; assay type: in vivo, Echinochloa crus-galli
Summary of the method: (§1)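 Greenhouse pot test with pre- and postemergence application of surfactant-containing solvent formulations. Postemergence plants were 2–10 cm, one- to two-leaf stage. Response scored visually after ~10 days, 0 (no effect) to 100 (complete control).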

crabgrass, large = assay: Test A pre-/postemergence herbicide test; assay type: in vivo, Digitaria sanguinalis
Summary of the method: as §1

giant foxtail = assay: Test A pre-/postemergence herbicide test; assay type: in vivo, Setaria faberii
Summary of the method: as §1

morningglory = assay: Test A pre-/postemergence herbicide test; assay type: in vivo, Ipomoea spp.
Summary of the method: as §1

pigweed = assay: Test A pre-/postemergence herbicide test; assay type: in vivo, Amaranthus retroflexus
Summary of the method: as §1

velvetleaf = assay: Test A pre-/postemergence herbicide test; assay type: in vivo, Abutilon theophrasti
Summary of the method: as §1

wheat = assay: Test A pre-/postemergence herbicide test; assay type: in vivo, Triticum aestivum
Summary of the method: as §1

corn = assay: Test A pre-/postemergence herbicide test; assay type: in vivo, Zea mays
Summary of the method: as §1

rice = assay: Test B flooded paddy test; assay type: in vivo, Oryza sativa; conditions: Flood, scale of 0 to 100 where 0 is no effect and 100 is complete control
Method: (§2) Plant species in the flooded paddy test selected from rice (Oryza sativa), sedge, umbrella (small-flower umbrella sedge, Cyperus difformis), ducksalad (Heteranthera limosa), and barnyardgrass (Echinochloa crus-galli) were grown to the 2-leaf stage for testing. At time of treatment, test pots were flooded to 3 cm above the soil surface, treated by application of test compounds directly to the paddy water, and then maintained at that water depth for the duration of the test. Treated plants and controls were maintained in a greenhouse for 13 to 15 days, after which time all species were compared to controls and visually evaluated. Plant response ratings, summarized in Table B, are based on a scale of 0 to 100 where 0 is no effect and 100 is complete control. A dash (-) response means no test result.

sedge, umbrella = assay: Test B flooded paddy test; assay type: in vivo, Cyperus difformis; conditions: Flood, scale of 0 to 100 where 0 is no effect and 100 is complete control
Summary of the method: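 Paddy-water application at a 3 cm flood, young plants having two leaves. Water level maintained; greenhouse, 13–15 days; visual 0–100 control rating.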

ducksalad = assay: Test B flooded paddy test; assay type: in vivo, Heteranthera limosa; conditions: Flood, scale of 0 to 100 where 0 is no effect and 100 is complete control
Method: as §2

barnyardgrass [2] = assay: Test B flooded paddy test; assay type: in vivo, Echinochloa crus-galli; conditions: Flood, scale of 0 to 100 where 0 is no effect and 100 is complete control
Method: as §2

[3] = Postemergence, 125 g ai/ha, 0 to 100 scale, 0 no effect, 100 complete control
[4] = Postemergence, 500 g ai/ha, 0 to 100 scale (0 no effect, 100 complete control)
[5] = Preemergence, 125 g ai/ha, visual rating on 0 to 100 scale (0 no effect, 100 complete control)
[6] = preemergence, 500 g ai/ha, 0 to 100 scale (0 no effect, 100 complete control)
[7] = preemergence, 500 g ai/ha, 0 to 100 scale
[8] = Postemergence, 1000 g ai/ha, 0 to 100 scale (0 no effect, 100 complete control)
[9] = Preemergence, 1000 g ai/ha, visual rating on 0 to 100 scale (0 no effect, 100 complete control), approx. 10 days
[10] = preemergence, 1000 g ai/ha, 0 to 100 scale
[11] = 125 g ai/ha, visual rating, 0 to 100 scale, 0 no effect, 100 complete control, approximately 10 days, preemergence
[12] = Postemergence, 125 g ai/ha, 0 to 100 scale, 0 is no effect, 100 is complete control
[13] = preemergence, 500 g ai/ha, 0 to 100 scale, 0 is no effect and 100 is complete control

N#Cc1cccc(C2CNC(=O)C2C(=O)Nc2cccc(F)c2F)c1 (racemic) [Compound 73]
80: Plant response rating, Barnyardgrass (barnyardgrass [1]; [4]) | Plant response rating, Barnyardgrass (barnyardgrass [1]; [6]) | Plant response rating, Crabgrass, Large (crabgrass, large; [4]) | Crabgrass, Large plant response rating (crabgrass, large; [5]) | Plant response rating, Foxtail, Giant (giant foxtail; [4]) | Foxtail, Giant plant response rating (giant foxtail; [5])
30: Plant response rating, Foxtail, Giant (giant foxtail; [3]) | Plant response rating, Velvetleaf (velvetleaf; [4])
50: Barnyardgrass plant response rating (barnyardgrass [1]; [5]) | Plant response rating, Crabgrass, Large (crabgrass, large; [3])
0: Plant response rating, Morningglory (morningglory; [3]) | Morningglory plant response rating (morningglory; [5]) | Plant response rating, Morningglory (morningglory; [7]) | Plant response rating, Pigweed (pigweed; [4]) | Pigweed plant response rating (pigweed; [5]) | Plant response rating, Pigweed (pigweed; [7]) | Plant response rating, Velvetleaf (velvetleaf; [3]) | Velvetleaf plant response rating (velvetleaf; [5]) | Plant response rating, Velvetleaf (velvetleaf; [7]) | Plant response rating, Wheat (wheat; [3]) | Plant response rating, Wheat (wheat; [4]) | Wheat plant response rating (wheat; [5]) | Plant response rating, Wheat (wheat; [7]) | Plant response rating, Corn (corn; [3]) | Plant response rating, Corn (corn; [4]) | Corn plant response rating (corn; [5]) | Plant response rating, Corn (corn; [7]) | Plant response rating, Rice (rice; 250 g ai/ha) | Plant response rating, Sedge, Umbrella (sedge, umbrella; 250 g ai/ha) | Plant response rating, Barnyardgrass (barnyardgrass [2]; 250 g ai/ha)
60: Plant response rating, Ducksalad (ducksalad; 250 g ai/ha)
20: Plant response rating, Morningglory (morningglory; [4])
70: Plant response rating, Barnyardgrass (barnyardgrass [1]; [3])
90: Plant response rating, Crabgrass, Large (crabgrass, large; [7]) | Plant response rating, Foxtail, Giant (giant foxtail; [7])

O=C1NCC(c2ccc(F)c(F)c2)C1C(=O)Nc1ccc[nH]c1=O (racemic) [Compound 97]
50: Plant response rating, Rice (rice; 250 g ai/ha) | Plant response rating, Barnyardgrass (barnyardgrass [2]; 250 g ai/ha)
0: Plant response rating, Barnyardgrass (barnyardgrass [1]; [3]) | Plant response rating, Barnyardgrass (barnyardgrass [1]; [4]) | Barnyardgrass plant response rating (barnyardgrass [1]; [5]) | Plant response rating, Barnyardgrass (barnyardgrass [1]; [6]) | Plant response rating, Crabgrass, Large (crabgrass, large; [3]) | Plant response rating, Crabgrass, Large (crabgrass, large; [4]) | Crabgrass, Large plant response rating (crabgrass, large; [5]) | Plant response rating, Crabgrass, Large (crabgrass, large; [7]) | Plant response rating, Foxtail, Giant (giant foxtail; [3]) | Plant response rating, Foxtail, Giant (giant foxtail; [4]) | Foxtail, Giant plant response rating (giant foxtail; [5]) | Plant response rating, Foxtail, Giant (giant foxtail; [7]) | Plant response rating, Morningglory (morningglory; [3]) | Plant response rating, Morningglory (morningglory; [4]) | Morningglory plant response rating (morningglory; [5]) | Plant response rating, Morningglory (morningglory; [7]) | Plant response rating, Pigweed (pigweed; [3]) | Plant response rating, Pigweed (pigweed; [4]) | Pigweed plant response rating (pigweed; [5]) | Plant response rating, Pigweed (pigweed; [7]) | Plant response rating, Velvetleaf (velvetleaf; [3]) | Plant response rating, Velvetleaf (velvetleaf; [4]) | Velvetleaf plant response rating (velvetleaf; [5]) | Plant response rating, Velvetleaf (velvetleaf; [7]) | Plant response rating, Wheat (wheat; [3]) | Plant response rating, Wheat (wheat; [4]) | Wheat plant response rating (wheat; [5]) | Plant response rating, Wheat (wheat; [7]) | Plant response rating, Corn (corn; [3]) | Plant response rating, Corn (corn; [4]) | Corn plant response rating (corn; [5]) | Plant response rating, Corn (corn; [7])
75: Plant response rating, Sedge, Umbrella (sedge, umbrella; 250 g ai/ha)
70: Plant response rating, Ducksalad (ducksalad; 250 g ai/ha)

O=C1NCC(c2ccc(F)c(F)c2)C1C(=O)Nc1cccc(Cl)c1F (racemic) [Compound 104]
10: Plant response rating, Velvetleaf (velvetleaf; [8])
0: Plant response rating, Morningglory (morningglory; [8]) | Plant response rating, Morningglory (morningglory; [9]) | Plant response rating, Pigweed (pigweed; [8]) | Plant response rating, Pigweed (pigweed; [9]) | Plant response rating, Velvetleaf (velvetleaf; [9]) | Plant response rating, Wheat (wheat; [8]) | Plant response rating, Corn (corn; [8]) | Plant response rating, Rice (rice; 1000 g ai/ha) | Plant response rating, Sedge, Umbrella (sedge, umbrella; 1000 g ai/ha)
70: Plant response rating, Foxtail, Giant (giant foxtail; [8]) | Plant response rating, Barnyardgrass (barnyardgrass [2]; 1000 g ai/ha)
80: Plant response rating, Barnyardgrass (barnyardgrass [1]; [8]) | Plant response rating, Barnyardgrass (barnyardgrass [1]; [9]) | Plant response rating, Crabgrass, Large (crabgrass, large; [8])
90: Plant response rating, Crabgrass, Large (crabgrass, large; [9]) | Plant response rating, Foxtail, Giant (giant foxtail; [9])
20: Plant response rating, Wheat (wheat; [9]) | Plant response rating, Corn (corn; [9])
95: Plant response rating, Ducksalad (ducksalad; 1000 g ai/ha)

O=C1NCC(c2ccc(F)c(F)c2)C1C(=O)Nc1cccnc1F (racemic) [Compound 105]
0: Plant response rating, Morningglory (morningglory; [10]) | Plant response rating, Pigweed (pigweed; [8]) | Plant response rating, Pigweed (pigweed; [10]) | Plant response rating, Velvetleaf (velvetleaf; [10]) | Plant response rating, Wheat (wheat; [8]) | Plant response rating, Wheat (wheat; [10]) | Plant response rating, Corn (corn; [8]) | Plant response rating, Corn (corn; [10]) | Plant response rating, Sedge, Umbrella (sedge, umbrella; 1000 g ai/ha)
80: Plant response rating, Foxtail, Giant (giant foxtail; [8])
25: Plant response rating, Barnyardgrass (barnyardgrass [2]; 1000 g ai/ha)
10: Plant response rating, Morningglory (morningglory; [8]) | Plant response rating, Velvetleaf (velvetleaf; [8]) | Plant response rating, Rice (rice; 1000 g ai/ha)
90: Plant response rating, Barnyardgrass (barnyardgrass [1]; [8]) | Plant response rating, Barnyardgrass (barnyardgrass [1]; preemergence, 1000 g ai/ha, 0 to 100 scale (0 no effect, 100 complete control)) | Plant response rating, Crabgrass, Large (crabgrass, large; [8]) | Plant response rating, Crabgrass, Large (crabgrass, large; [10]) | Plant response rating, Foxtail, Giant (giant foxtail; [10]) | Plant response rating, Ducksalad (ducksalad; 1000 g ai/ha)

COc1ccc(C2CNC(=O)C2C(=O)Nc2ccccc2F)cc1F (racemic) [Compound 197]
75: Plant response rating, Ducksalad (ducksalad; 1000 g ai/ha)
50: Plant response rating, Crabgrass, Large (crabgrass, large; [12])
70: Barnyardgrass plant response rating (0 to 100 scale, 0 is no effect, 100 is complete control) (barnyardgrass [1]; Postemergence, 500 g ai/ha) | Plant response rating, Barnyardgrass (barnyardgrass [1]; [13]) | Crabgrass, Large plant response rating (0 to 100 scale, 0 is no effect, 100 is complete control) (crabgrass, large; Postemergence, 500 g ai/ha)
10: Morningglory plant response rating (0 to 100 scale, 0 is no effect, 100 is complete control) (morningglory; Postemergence, 500 g ai/ha) | Plant response rating, Rice (rice; 1000 g ai/ha)
0: Plant response rating, Barnyardgrass (barnyardgrass [1]; [11]) | Plant response rating, Foxtail, Giant (giant foxtail; [12]) | Plant response rating, Morningglory (morningglory; [11]) | Plant response rating, Morningglory (morningglory; [12]) | Plant response rating, Morningglory (morningglory; [13]) | Plant response rating, Pigweed (pigweed; [11]) | Plant response rating, Pigweed (pigweed; [12]) | Pigweed plant response rating (0 to 100 scale, 0 is no effect, 100 is complete control) (pigweed; Postemergence, 500 g ai/ha) | Plant response rating, Pigweed (pigweed; [13]) | Plant response rating, Velvetleaf (velvetleaf; [11]) | Plant response rating, Velvetleaf (velvetleaf; [12]) | Velvetleaf plant response rating (0 to 100 scale, 0 is no effect, 100 is complete control) (velvetleaf; Postemergence, 500 g ai/ha) | Plant response rating, Velvetleaf (velvetleaf; [13]) | Plant response rating, Wheat (wheat; [11]) | Plant response rating, Wheat (wheat; [12]) | Wheat plant response rating (0 to 100 scale, 0 is no effect, 100 is complete control) (wheat; Postemergence, 500 g ai/ha) | Plant response rating, Wheat (wheat; [13]) | Plant response rating, Corn (corn; [11]) | Plant response rating, Corn (corn; [12]) | Corn plant response rating (0 to 100 scale, 0 is no effect, 100 is complete control) (corn; Postemergence, 500 g ai/ha) | Plant response rating, Corn (corn; [13]) | Plant response rating, Rice (rice; 250 g ai/ha) | Plant response rating, Sedge, Umbrella (sedge, umbrella; 250 g ai/ha) | Plant response rating, Sedge, Umbrella (sedge, umbrella; 1000 g ai/ha) | Plant response rating, Ducksalad (ducksalad; 250 g ai/ha) | Plant response rating, Barnyardgrass (barnyardgrass [2]; 250 g ai/ha)
80: Plant response rating, Crabgrass, Large (crabgrass, large; [11]) | Plant response rating, Foxtail, Giant (giant foxtail; [13])
40: Foxtail, Giant plant response rating (0 to 100 scale, 0 is no effect, 100 is complete control) (giant foxtail; Postemergence, 500 g ai/ha)
30: Plant response rating, Barnyardgrass (barnyardgrass [1]; [12]) | Plant response rating, Foxtail, Giant (giant foxtail; [11]) | Plant response rating, Barnyardgrass (barnyardgrass [2]; 1000 g ai/ha)
100: Plant response rating, Crabgrass, Large (crabgrass, large; [13])
